In patent US20200171117A1, “DRY EYE BOTANICALS” (ACCESS BUSINESS GROUP INTERNATIONAL LLC, priority 2018, published 2020):
Values joined by “and” are separate entries in the source; they are usually repeats but may differ in a detail not shown here. Equal entries are not always repeated.

How the values were obtained:
[1] = tested on: HMGEC (immortalized human meibomian gland epithelial cells); assay: PPARγ-mediated lipid synthesis activity in HMGECs (LipidTox Green neutral lipid staining); assay type: cell-based; conditions: for Effect on lipid synthesis (in words): compared with Rosi
Method: Extracts of loquat and ginger identified in Example 1 are tested for their effect on lipid synthesis and PPARγ receptor activation using HMGECs. In particular, HMGECs are plated on collagen coated glass cover slips and treated with samples of each extract (varying concentrations in Media 1 with 0.1% DMSO), positive control (Rosi, 30 μM in Media 1 with 0.1% DMSO), and negative control (Media 1 with 0.1% DMSO) and incubated for 6 days. The treated cells are then fixed, stained with LipidTox Green, and the area of neutral lipid staining quantified.

[2] = tested on: PPARγ response genes ADFP, ELOVL4, and ANGPTL4; assay: Real-time PCR of PPARγ response gene expression; assay type: cell-based; conditions: FIGS. 1-4
Method: Loquat Extract #1 (“538”), and known phytochemical components thereof (oleanolic acid (“OA”); ursolic acid (“UA”)), are analyzed by real-time PCR (BioRad CFX96 Thermal Cycler, Hercules, Calif. (or equivalent)), to assess sample-induced expression of the PPARγ response genes ADFP, ELOVL4, and ANGPTL4 via mRNA quantification. In particular, samples are prepared and analyzed according to the procedure set forth in Jester et. al., “PPARγ regulates mouse meibocyte differentiation and lipid synthesis,” The Ocular Surface 14.4 (2016): 484-494, the disclosure of which is herein incorporated by […]. The results of the quantification are shown in FIGS. 1-4, where the vertical (Y) axis of each plot corresponds to the fold change in response observed.
To assess the effects on gene expression mediation via PPARγ signaling, a PPARγ-specific antagonist (T0070907; (“T”)) is added to inhibit PPARγ signaling. […] As such, Loquat leaf is shown to have specific and synergistic PPARγ agonist activity that may be unrelated to individual phytochemical components thereof.

Compound	% Lipid Mean (percent positive control, Rosi set at 100%) ([1]; 30 μM, 6 days)	Nuclei Mean ([1]; 30 μM, 6 days)	Effect on lipid synthesis (in words) [1]	PPARγ response gene expression (mRNA of ADFP, ELOVL4, ANGPTL4; PPARγ), fold change, in words [2]
CN(CCOc1ccc(CC2SC(=O)NC2=O)cc1)c1ccccn1 (stereo not drawn) [Rosi, Rosiglitazone]	97.5% and 100%	1622.13 and 1070		
CC1(C)CC[C@]2(C(=O)O)CC[C@]3(C)C(=CC[C@@H]4[C@@]5(C)CC[C@H](O)C(C)(C)[C@@H]5CC[C@]43C)[C@@H]2C1 [oleanolic acid]			no individual effects	no individual effects
C[C@H]1[C@H](C)CC[C@]2(C(=O)O)CC[C@]3(C)C(=CC[C@@H]4[C@@]5(C)CC[C@H](O)C(C)(C)[C@@H]5CC[C@]43C)[C@H]12 [ursolic acid]			no individual effects	no individual effects
